Measured values published in patent US8987256B2, “Oxo-heterocyclic substituted carboxylic acid derivatives and the use thereof” (Bayer Intellectual Property GmbH, priority 2008, dated 2015).

How the values were obtained:
[1] = target: T1, recombinant guanylate cyclase reporter cell line (Rattus norvegicus, UniProt P20595); experiment: sGC-activating activity in the CHO reporter cell in vitro; format: cell-based
T1 construct: expressed in transfected cells; host or cells: CHO reporter cell line
T1 sequence (P20595 1-619): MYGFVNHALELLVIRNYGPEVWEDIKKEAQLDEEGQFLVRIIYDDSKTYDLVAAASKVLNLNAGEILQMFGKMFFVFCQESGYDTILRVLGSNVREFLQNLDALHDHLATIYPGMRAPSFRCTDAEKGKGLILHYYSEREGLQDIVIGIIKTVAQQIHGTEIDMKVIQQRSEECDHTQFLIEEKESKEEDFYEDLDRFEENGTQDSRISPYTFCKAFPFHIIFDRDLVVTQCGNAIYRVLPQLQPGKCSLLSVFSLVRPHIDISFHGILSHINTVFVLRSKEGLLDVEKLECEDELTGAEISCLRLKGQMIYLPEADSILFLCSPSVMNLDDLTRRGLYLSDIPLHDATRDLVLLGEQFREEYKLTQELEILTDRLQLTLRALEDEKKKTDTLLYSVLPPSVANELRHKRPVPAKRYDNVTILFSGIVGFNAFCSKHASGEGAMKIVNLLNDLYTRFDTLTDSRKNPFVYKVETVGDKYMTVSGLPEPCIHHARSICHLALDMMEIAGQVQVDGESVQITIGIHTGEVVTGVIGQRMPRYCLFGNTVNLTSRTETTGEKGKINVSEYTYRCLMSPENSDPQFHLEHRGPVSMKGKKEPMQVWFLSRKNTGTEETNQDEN
T1 sequence (P19686 1-690 partner): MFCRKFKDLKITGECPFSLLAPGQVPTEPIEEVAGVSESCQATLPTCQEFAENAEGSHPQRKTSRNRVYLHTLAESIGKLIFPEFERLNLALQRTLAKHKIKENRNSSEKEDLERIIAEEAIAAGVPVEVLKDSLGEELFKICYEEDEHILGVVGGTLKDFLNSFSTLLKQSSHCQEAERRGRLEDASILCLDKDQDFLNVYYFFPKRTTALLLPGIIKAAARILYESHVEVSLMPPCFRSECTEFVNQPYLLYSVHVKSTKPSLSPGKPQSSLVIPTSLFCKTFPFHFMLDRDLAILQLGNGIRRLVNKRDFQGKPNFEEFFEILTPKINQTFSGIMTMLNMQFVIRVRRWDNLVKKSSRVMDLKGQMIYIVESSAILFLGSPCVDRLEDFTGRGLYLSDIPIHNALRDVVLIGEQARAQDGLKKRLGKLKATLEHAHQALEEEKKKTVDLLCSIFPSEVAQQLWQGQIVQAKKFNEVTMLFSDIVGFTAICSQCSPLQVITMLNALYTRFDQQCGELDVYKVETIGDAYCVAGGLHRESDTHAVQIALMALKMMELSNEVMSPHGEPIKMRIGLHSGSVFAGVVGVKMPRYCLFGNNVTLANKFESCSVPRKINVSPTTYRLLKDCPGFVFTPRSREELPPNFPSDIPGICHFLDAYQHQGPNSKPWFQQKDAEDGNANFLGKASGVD
Procedure: The cellular action of the compounds according to the invention is determined at a recombinant guanylate cyclase reporter cell line, as described in F. Wunder et al., Anal. Biochem. 339, 104-112 (2005).

[2] = target: T2, soluble guanylate cyclase (sGC) (Rattus norvegicus, UniProt P20595); experiment: Activating action at the sGC enzyme in vitro (PPi detection, luciferase); format: biochemical; conditions: for EC50: read-out: EC50 (concentration at 50% of maximum efficacy), activating action at the sGC enzyme
T2 construct: made in house; host or cells: baculovirus/Sf9 insect cells
T2 sequence (P20595 1-619): T1 sequence (P20595 1-619)
T2 sequence (P19686 1-690 partner): T1 sequence (P19686 1-690 partner)
Procedure: Soluble guanylate cyclase (sGC) converts on stimulation GTP into cGMP and pyrophosphate (PPi). PPi is detected with the aid of the assay described below. The signal produced in the assay increases as the reaction progresses and serves as a measure of the sGC enzyme activity under the given stimulation.
To carry out the assay, 29 μl of enzyme solution [0-10 nM soluble guanylate cyclase (prepared according to Honicka et al., J. Mol. Med. 77, 14-23 (1999)) in 50 mM TEA, 2 mM MgCl2, 0.1% BSA (fraction V), 0.005% Brij®, pH 7.5] are initially introduced into a microplate, and 1 μl of the substance to be tested (as a serially diluted solution in DMSO) is added. The mixture is incubated at room temperature for 10 min. Then 20 μl of detection mix [1.2 nM Firefly Luciferase (Photinus pyralis luciferase, Promega), 29 μM dehydroluciferin (prepared according to Bitler & McElroy, Arch. Biochem. Biophys. 72, 358 (1957)), 122 μM luciferin (Promega), 153 μM ATP (Sigma) and 0.4 mM DTT (Sigma) in 50 mM TEA, 2 mM MgCl2, 0.1% BSA (fraction V), 0.005% Brij®, pH 7.5] are added. The enzyme reaction is started by adding 20 μl of substrate solution [1.25 mM guanosine 5′-triphosphate (Sigma) in 50 mM TEA, 2 mM MgCl2, 0.1% BSA (fraction V), 0.005% Brij®, pH 7.5] and measured continuously in a luminometer. The extent of the stimulation by the substance to be tested can be determined relative to the signal of the unstimulated reaction.
The activation of heme-free guanylate cyclase is examined by addition of 25 μM of 1H-1,2,4-oxadiazolo[4,3-a]quinoxalin-1-one (ODQ) to the enzyme solution and subsequent incubation for 30 minutes and compared to the stimulation of the native enzyme.

Row | MEC (minimum effective concentration), sGC-activating activity in the CHO reporter cell [1] [nM] | MEC (minimum effective concentration), activating action at the sGC enzyme [2] [nM] | EC50 [2] [nM] | Structure (SMILES)
1 | 3 | 0.5 | 11 | C[C@H]([C@H](C(=O)Nc1cccc(CC2(C(=O)O)CC2)c1)c1ccc(CN2Cc3ccccc3C2=O)cc1)C(F)(F)F [Example 207]
2 | 30 |  |  | O=C(O)c1ccc(CNC(=O)C(c2ccc(CN3N=C(c4ccccc4)OCC3=O)cc2)C2CCCC2)cc1 (single isomer, unassigned; ent-4) [Example 38, ent-4-{[(Cyclopentyl{4-[(5-oxo-2-phenyl-5,6-dihydro-4H-1,3,4-oxadiazin-4-yl)methyl]phenyl}acetyl)amino]methyl}benzenecarboxylic acid]
3 | 30 |  |  | O=C(O)CC[C@H]1CC[C@H](NC(=O)C(c2ccc(CN3N=C(c4ccccc4)OCC3=O)cc2)C2CCCC2)CC1 (single isomer, unassigned) [Example 118, 3-{trans-4-[(cyclopcntyl{4-[(5-oxo-2-phcnyl-5,6-dihydro-4H-1,3,4-oxadiazin-4-yl)mcthyl]phcnyl}acetyl)-amino]cyclohcxyl}propanoic acid]
4 | 30 |  |  | Cc1c(CCC(=O)O)cccc1NC(=O)C(c1ccc(Cn2nc(-c3ccccc3)oc2=O)cc1)C1CCCC1 (racemic) [Example 30, 3-{3-[(cyclopentyl{4-[(2-oxo-5-phenyl-1,3,4-oxadiazol-3(2H)-yl)methyl]phenyl}acetyl)amino]-2-methylphenyl}propanoic acid]
5 | 300 |  |  | O=C(O)c1ccc(CNC(=O)C(c2ccc(Cn3nc(-c4ccc(Cl)cc4)c4ccccc4c3=O)cc2)C2CCCC2)nc1 (racemic) [Example 11, 6-({[(4-{[4-(4-chlorophenyl)-1-oxophthalazin-2(1H)-yl]-methyl}phenyl)(cyclopentyl)acetyl]amino}methyl)-pyridine-3-carboxylic acid]
6 | 10 |  |  | O=C(O)c1ccc(CNC(=O)C(c2ccc(Cn3nc(-c4ccc(Cl)cc4)c4ccccc4c3=O)cc2)C2CCCC2)cc1 (racemic) [Example 1, 4-({[(4-{[4-(4-Chlorophenyl)-1-oxophthalazin-2(1H)-yl]methyl}phenyl)(cyclopentyl)acetyl]-amino}methyl)benzenecarboxylic acid]
7 | 10 |  |  | CC(C)C(C(=O)Nc1cccc(CCC(=O)O)c1)c1ccc(CN2N=C(c3ccccc3)OCC2=O)cc1 (single isomer, unassigned) [Example 105, 3-{3-[(3-mcthyl-2-{4-[(5-oxo-2-phcnyl-5,6-dihydro-4H-l,3,4-oxadiazin-4-yl)mcthyl]phenyl}butanoyl)-amino]phcnyl}propanoic acid]
8 | 3 |  |  | CCC(C)C(C(=O)Nc1cccc(CCC(=O)O)c1)c1ccc(CN2N=C(c3ccccc3)OCC2=O)cc1 (single isomer, unassigned) [Example 62, 3-{3-[(3-Methyl-2-{4-[(5-oxo-2-phenyl-5,6-dihydro-4H-1,3,4-oxadiazin-4-yl)methyl]-phenyl}pentanoyl)amino]phenyl}propanoic acid]
9 | 300 |  |  | O=C(O)CCc1cccc(NC(=O)C(c2ccc(Cn3nc(-c4ccccc4)oc3=O)cc2)C2CCCC2)c1 (racemic) [Example 22]
10 | 300 |  |  | Cc1c(CCC(=O)O)cccc1NC(=O)C(c1ccc(CN2CCN(c3cccc(Cl)c3)C2=O)cc1)C1CCCC1 (racemic) [Example 26, 3-(3-{[(4-{[3-(3-chlorophenyl)-2-oxoimidazolidin-1-yl]methyl}phenyl)(cyclopentyl)acetyl]amino}-2-methylphenyl)propanoic acid]

Continued, compound first:

Row | Structure (SMILES) | MEC (minimum effective concentration), sGC-activating activity in the CHO reporter cell [1] [nM] | MEC (minimum effective concentration), activating action at the sGC enzyme [2] [nM] | EC50 [2] [nM]
11 | O=C(Nc1cccc(CC2(C(=O)O)CC2)c1)C(c1ccc(CN2Cc3c(F)cccc3C2=O)cc1)C1CCCC1 (centres unmarked) [Example 213] | 3 | 1.2 | 24
12 | O=C(Nc1cc(CC2(C(=O)O)CC2)ccc1F)C(c1ccc(CN2N=C(c3ccccc3)OCC2=O)cc1)C1CCCC1 (centres unmarked) [Example 231] | 0.2 | 0.4 | 5.2
13 | O=C(O)CCc1ccc(Cl)c(NC(=O)C(c2ccc(CN3N=C(c4ccccc4)OCC3=O)cc2)C2CCCC2)c1 (centres unmarked) [Example 187, 3-{4-chloro-3-[(cyclopentyl{4-[(5-oxo-2-phenyl-5,6-dihydro-4H-1,3,4-oxadiazin-4-yl)methyl]-phenyl}acetyl)amino]phenyl}propanoic acid] | 1 |  | 
14 | Cc1c(CCC(=O)O)cccc1NC(=O)C(c1ccc(Cn2nnc3ccccc3c2=O)cc1)C1CCCC1 (racemic) [Example 29, 3-{3-[(cyclopentyl{4-[(4-oxo-1,2,3-benzotriazin-3(4H)-yl)methyl]phenyl}acetyl)amino]-2-methyl-phenyl}propanoic acid] | 30 |  | 
15 | COCC(C)C(C(=O)Nc1cccc(CCC(=O)O)c1C)c1ccc(CN2N=C(c3ccccc3)OCC2=O)cc1 (centres unmarked) [Example 3, 3-{3-[(4-Methoxy-3-methyl-2-{4-[(5-oxo-2-phenyl-5,6-dihydro-4H-1,3,4-oxadiazin-4-yl)-methyl]phenyl}butanoyl)amino]-2-methylphenyl}propanoic acid] | 300 |  | 
16 | CC(C)C(C(=O)Nc1ccc(CCC(=O)O)cc1)c1ccc(CN2N=C(c3ccccc3)OCC2=O)cc1 (single isomer, unassigned) [Example 106, 3-{4-[(3-mcthyl-2-{4-[(5-oxo-2-phcny1-5,6-dihydro-4H-1,3,4-oxadiazin-4-yl)mcthyl]phenyl}butanoyl)-amino]phcnyl}propanoic acid] | 10 |  | 
17 | O=C(O)CCc1cccc(NC(=O)C(c2ccc(Cn3nnc4ccccc4c3=O)cc2)C2CCCC2)c1 (racemic) [Example 21, 3-{3-[(cyclopentyl{4-[(4-oxo-1,2,3-benzotriazin-3(4H)-yl)methyl]phenyl}acetyl)amino]phenyl}-propanoic acid] | 30 |  | 
